Test results published in ChEMBL document CHEMBL1201862, “PubChem BioAssay data set” (2004).
The source made the active and inactive calls.

How the values were obtained:
P388/ADR = experiment: cells; format: functional; settings: Mus musculus
SN12K1 = experiment: cells; format: functional; settings: Homo sapiens
P388 = experiment: cells; format: functional; settings: Mus musculus
[1] = HEp-2 cell cytotoxicity, dose response, cytotoxicity control for RSV inhibitor project, HTS (AID 2410); format: functional; settings: human respiratory syncytial virus
HEK293 [2] = experiment: NOD1 signaling inhibitors, primary screen, cell-based, luminescence, uHTS (AID 1578); format: functional; settings: Homo sapiens
HEK293 [3] = experiment: cells; format: functional, cell-based; settings: Homo sapiens
HEK293 [4] = experiment: cells; format: functional, cell-based; settings: Homo sapiens; remark: listed apart in the source
[5] = molecular target: Nucleotide-binding oligomerization domain-containing protein 2 (Homo sapiens, UniProt Q9HC29); experiment: NOD2 signaling inhibitors, cell-based, luminescence, uHTS, HEK293 (AID 1566); format: functional
Sequence of Nucleotide-binding oligomerization domain-containing protein 2 (Q9HC29 whole entry, the tested form may be a part): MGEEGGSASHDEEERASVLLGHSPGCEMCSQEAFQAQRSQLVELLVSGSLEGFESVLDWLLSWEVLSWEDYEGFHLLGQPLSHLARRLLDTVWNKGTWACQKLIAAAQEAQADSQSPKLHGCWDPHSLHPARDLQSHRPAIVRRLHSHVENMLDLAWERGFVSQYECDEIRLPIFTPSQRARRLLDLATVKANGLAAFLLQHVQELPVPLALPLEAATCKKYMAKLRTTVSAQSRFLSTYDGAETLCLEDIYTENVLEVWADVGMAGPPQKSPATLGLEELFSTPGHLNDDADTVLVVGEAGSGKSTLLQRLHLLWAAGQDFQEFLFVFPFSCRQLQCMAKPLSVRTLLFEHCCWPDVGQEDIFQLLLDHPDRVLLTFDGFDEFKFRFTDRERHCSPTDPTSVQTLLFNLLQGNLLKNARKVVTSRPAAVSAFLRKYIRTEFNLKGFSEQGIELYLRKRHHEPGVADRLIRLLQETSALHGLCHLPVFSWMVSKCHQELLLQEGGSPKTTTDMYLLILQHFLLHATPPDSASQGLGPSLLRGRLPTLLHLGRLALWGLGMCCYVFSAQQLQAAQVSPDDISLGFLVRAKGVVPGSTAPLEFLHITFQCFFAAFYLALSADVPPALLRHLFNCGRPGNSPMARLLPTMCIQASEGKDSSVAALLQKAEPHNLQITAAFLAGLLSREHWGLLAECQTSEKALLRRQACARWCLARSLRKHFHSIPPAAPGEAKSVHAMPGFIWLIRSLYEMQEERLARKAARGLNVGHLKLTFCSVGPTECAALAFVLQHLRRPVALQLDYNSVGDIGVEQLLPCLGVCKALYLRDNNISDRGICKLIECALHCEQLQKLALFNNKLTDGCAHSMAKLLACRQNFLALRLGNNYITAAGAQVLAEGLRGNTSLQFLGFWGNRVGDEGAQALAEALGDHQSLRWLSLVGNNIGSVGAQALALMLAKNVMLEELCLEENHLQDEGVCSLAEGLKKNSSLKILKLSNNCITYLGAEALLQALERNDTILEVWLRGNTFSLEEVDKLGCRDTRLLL

HEK293 [6] = experiment: NOD2 signaling inhibitors in MDP-stimulated cells, cell-based, uHTS, luminescence (AID 2001); format: functional; settings: Homo sapiens
[7] = inhibitors of intracellular T. cruzi replication, confirmation, NIH3T3 host cells, beta-gal luminescence (AID 2044); format: functional, cell-based;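 further: intracellular parasites grown in NIH/3T3 mouse fibroblasts as host cells; luminescent beta-galactosidase reporter signal from transgenic T. cruzi replicating inside host cells; inhibitors lower the luminescence signal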
HEK293 [8] = experiment: cells; format: functional, cell-based; settings: Homo sapiens; remark: listed apart in the source
[9] = cytotoxicity toward NIH3T3 fibroblasts, dose response, counter-screen, cell-based, ATP luminescence, mouse fibroblasts (AID 2010); format: functional;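 further: cells exposed to compound for about 90 hours before reading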
HEK293 [10] = experiment: inhibitors of LMP1-driven NF-kB reporter, dose response, cell-based, HEK293, luciferase, cherry-pick (AID 588343); format: functional; settings: Homo sapiens
[11] = molecular target: T1, Adenosylmethionine-8-amino-7-oxononanoate aminotransferase (Mycobacterium tuberculosis, UniProt P9WQ81); experiment: Mycobacterium tuberculosis BioA enzyme inhibitor Measured in Biochemical System Using Plate Reader - 2163-02_Inhibitor_Dose_CherryPick_Activity.; format: functional, Mycobacterium tuberculosis UT205
T1 sequence (P9WQ81 whole entry): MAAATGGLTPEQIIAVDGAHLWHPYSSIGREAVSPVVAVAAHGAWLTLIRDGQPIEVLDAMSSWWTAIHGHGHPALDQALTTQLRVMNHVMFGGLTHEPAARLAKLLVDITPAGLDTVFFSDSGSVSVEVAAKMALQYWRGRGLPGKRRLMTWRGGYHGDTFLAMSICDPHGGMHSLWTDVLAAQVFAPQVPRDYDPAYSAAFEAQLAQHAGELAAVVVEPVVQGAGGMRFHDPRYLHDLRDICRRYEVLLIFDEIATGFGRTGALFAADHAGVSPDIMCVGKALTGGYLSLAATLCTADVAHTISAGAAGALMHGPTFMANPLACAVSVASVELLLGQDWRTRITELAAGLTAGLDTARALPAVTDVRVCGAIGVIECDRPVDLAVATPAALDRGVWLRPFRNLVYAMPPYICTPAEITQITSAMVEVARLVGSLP

[12] = NIH-3T3 fibroblast cytotoxicity, dose response, cytotoxicity control, cell-based, fluorescence, Alamar Blue, secondary assay (AID 2327); format: functional;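 further: NIH-3T3 mouse fibroblasts cultured with fluconazole at 8 µg/mL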
[13] = molecular target: T2, Heat shock factor protein 1 (Mus musculus, UniProt P38532); experiment: inhibition of MG132-induced HSE-luciferase signal, confirmation, cell-based, NIH3T3, luminescence, dose retest (AID 2382); format: functional;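 further: NIH3T3 fibroblasts with HSF1-driven luciferase reporter stressed by proteasome inhibitor MG132; luminescence from HSF1-driven luciferase expression after 8 hours of MG132 stress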
T2 sequence (P38532 whole entry): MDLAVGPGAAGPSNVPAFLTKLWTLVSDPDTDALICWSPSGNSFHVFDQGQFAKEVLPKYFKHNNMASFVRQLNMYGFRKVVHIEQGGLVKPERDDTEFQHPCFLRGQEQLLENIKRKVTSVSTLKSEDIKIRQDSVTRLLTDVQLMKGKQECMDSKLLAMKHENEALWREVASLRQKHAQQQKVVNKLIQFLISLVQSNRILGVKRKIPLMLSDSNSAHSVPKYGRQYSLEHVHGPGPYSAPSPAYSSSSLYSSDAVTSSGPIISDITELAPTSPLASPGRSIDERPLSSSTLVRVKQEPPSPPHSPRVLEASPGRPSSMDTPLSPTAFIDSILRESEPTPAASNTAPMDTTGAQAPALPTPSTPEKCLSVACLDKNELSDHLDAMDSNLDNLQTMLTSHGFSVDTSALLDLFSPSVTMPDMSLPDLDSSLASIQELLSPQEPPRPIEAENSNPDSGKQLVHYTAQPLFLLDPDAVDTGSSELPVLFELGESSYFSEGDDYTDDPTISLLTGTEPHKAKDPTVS

[14] = C. albicans growth with fluconazole, confirmation, fluorescence, retest (AID 2467); format: functional, cell-based
[15] = molecular target: T3, Replicative DNA helicase DnaB (Mycobacterium tuberculosis, UniProt P9WMR3); experiment: DnaB intein splicing inhibitors, dose response, biochemical, cell-free fluorescence (AID 449749); format: functional
T3 sequence (P9WMR3 whole entry): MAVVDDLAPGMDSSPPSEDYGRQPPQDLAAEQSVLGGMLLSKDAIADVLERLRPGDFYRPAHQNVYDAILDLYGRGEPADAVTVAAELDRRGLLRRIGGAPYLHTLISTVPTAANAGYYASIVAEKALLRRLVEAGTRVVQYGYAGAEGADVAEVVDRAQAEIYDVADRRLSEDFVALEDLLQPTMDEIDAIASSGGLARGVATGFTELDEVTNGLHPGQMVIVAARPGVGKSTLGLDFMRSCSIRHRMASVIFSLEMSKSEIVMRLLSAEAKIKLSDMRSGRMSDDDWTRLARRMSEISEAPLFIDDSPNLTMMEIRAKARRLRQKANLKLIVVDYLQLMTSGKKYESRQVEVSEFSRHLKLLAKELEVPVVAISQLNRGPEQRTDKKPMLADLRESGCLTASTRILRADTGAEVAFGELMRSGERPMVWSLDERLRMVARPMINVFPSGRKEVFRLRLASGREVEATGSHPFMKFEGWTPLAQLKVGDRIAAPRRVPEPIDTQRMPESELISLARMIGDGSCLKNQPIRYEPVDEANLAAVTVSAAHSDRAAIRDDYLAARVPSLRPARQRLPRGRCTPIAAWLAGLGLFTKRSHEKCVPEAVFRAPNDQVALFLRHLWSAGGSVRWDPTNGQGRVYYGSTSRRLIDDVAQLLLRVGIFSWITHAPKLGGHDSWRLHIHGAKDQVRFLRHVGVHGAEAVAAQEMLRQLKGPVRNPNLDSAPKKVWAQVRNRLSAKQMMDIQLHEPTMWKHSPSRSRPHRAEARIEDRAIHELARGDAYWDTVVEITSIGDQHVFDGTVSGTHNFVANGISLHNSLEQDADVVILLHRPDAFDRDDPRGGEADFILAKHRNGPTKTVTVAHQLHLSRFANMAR

Protein RecA = molecular target: T4, Protein RecA (Mycobacterium tuberculosis, UniProt P9WHJ3); experiment: Fluorescence Cell-Free Homogeneous Dose Retest to Identify Inhibitors of RecA-Intein Splicing Activity. [Related pubchem assays (depositor defined):AID2097, AID2223, AID489010, AID492950]; format: functional
T4 sequence (P9WHJ3 whole entry): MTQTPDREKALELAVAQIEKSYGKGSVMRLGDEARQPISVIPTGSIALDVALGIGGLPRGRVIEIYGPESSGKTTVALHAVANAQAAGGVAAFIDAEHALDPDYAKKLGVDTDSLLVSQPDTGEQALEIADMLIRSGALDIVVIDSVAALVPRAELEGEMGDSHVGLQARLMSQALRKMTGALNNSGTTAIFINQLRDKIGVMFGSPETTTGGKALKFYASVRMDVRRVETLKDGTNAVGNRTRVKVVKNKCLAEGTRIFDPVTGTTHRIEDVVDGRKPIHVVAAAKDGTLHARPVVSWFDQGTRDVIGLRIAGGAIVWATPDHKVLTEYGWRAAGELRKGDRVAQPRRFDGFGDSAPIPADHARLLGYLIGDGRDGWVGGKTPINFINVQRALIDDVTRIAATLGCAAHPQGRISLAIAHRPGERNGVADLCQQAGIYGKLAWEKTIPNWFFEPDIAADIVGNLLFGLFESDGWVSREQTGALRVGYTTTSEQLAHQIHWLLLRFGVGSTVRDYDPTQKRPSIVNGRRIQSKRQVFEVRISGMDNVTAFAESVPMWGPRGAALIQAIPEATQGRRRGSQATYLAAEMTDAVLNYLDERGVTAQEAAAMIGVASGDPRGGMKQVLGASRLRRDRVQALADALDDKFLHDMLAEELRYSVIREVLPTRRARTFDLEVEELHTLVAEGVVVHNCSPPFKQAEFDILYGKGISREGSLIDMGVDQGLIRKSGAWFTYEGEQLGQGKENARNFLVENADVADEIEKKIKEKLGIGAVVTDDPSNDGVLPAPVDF

[16] = Fluorescence-based cell-based high throughput dose response assay for inhibitors of the interaction of nucleotide-binding oligomerization domain containing 2 (NOD2) and the receptor-interacting serine-threonine kinase 2 (RIPK2).; format: functional; settings: Homo sapiens
[17] = growth suppression of PTEN-null colon cells, dose response, cell-based, HCT116 PTEN knockout (AID 1047); format: functional;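 further: HCT116 colon tumor cells with PTEN knocked out; cells exposed to compound for 60 hours before readout; potency for loss of cell viability measured by luminescence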
[18] = growth suppression of beta-catenin-knockout colon cells, dose response, cell-based, HCT116, human colon tumor (AID 1045); format: functional;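 further: HCT116 colon tumor cells with beta catenin knocked out; cells exposed to compound for 60 hours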
Vero = experiment: cells; format: functional; settings: Chlorocebus sabaeus
[19] = Luminescence Cell-Based Dose Confirmation HTS to Identify Activators of 5'UTR Stem-Loop Driven Alpha-Synuclein mRNA Translation in H4 Neuroglioblastoma Cells. [Related pubchem assays: 1829 (Project Summary), 1814 (Primary HTS)]; format: functional
[20] = Luminescence Cell-Based Dose Response HTS to Identify Activators of Luciferase Translation or Activity in H4 […] Cells. [Related pubchem assays: 1829 (Project Summary), 1814 (Primary HTS)]; format: functional
H4 = experiment: Luminescence Cell-Based Dose Response HTS to Identify Activators of 5'UTR Stem-Loop Driven Prion Protein mRNA Translation in H4 Neuroglioblastoma Cells. [Related pubchem assays: 1829 (Project Summary), 1814 (Primary HTS)]; format: functional; settings: Homo sapiens
Cytochrome P450 2C9 = Cytochrome P450 2C9 (Homo sapiens, UniProt P11712)
Sequence of Cytochrome P450 2C9 (P11712 whole entry): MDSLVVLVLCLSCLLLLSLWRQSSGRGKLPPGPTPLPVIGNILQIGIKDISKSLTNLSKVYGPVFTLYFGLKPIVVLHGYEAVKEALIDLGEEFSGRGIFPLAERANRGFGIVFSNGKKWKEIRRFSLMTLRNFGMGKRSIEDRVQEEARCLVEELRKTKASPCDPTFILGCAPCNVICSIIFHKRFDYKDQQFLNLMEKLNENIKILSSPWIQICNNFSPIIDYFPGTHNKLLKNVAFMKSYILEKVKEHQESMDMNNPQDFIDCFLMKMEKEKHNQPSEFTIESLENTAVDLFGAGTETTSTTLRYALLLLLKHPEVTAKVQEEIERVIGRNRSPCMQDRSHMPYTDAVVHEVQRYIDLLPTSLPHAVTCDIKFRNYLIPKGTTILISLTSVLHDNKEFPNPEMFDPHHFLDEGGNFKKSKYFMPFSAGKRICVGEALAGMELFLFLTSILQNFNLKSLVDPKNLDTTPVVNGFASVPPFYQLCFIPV

Cn1c(/C=C/CO)c(CO)c2c1C(=O)C=C(N1CC1)C2=O [APAZIQUONE]
GI50 (P388/ADR): 0.506 µM (active)
GI50 (SN12K1): 0.0102 µM (active)
GI50 (P388): 0.94 µM (active)

Cc1cccc(N2CCN(C(=O)CCCCCn3c(=S)[nH]c4ccc(N5CCOCC5)cc4c3=O)CC2)c1C
CC50 [1]: 26.4 µM (active)
EC50 (HEK293 [2]): 15.1 µM (active)
IC50 (HEK293 [3]): > 20 µM (inactive)
IC50 (HEK293 [4]): > 20 µM (inactive)
EC50 [5]: 11.9 µM (active)
IC50 (HEK293 [6]): 11.9 µM (inactive)
EC50 [7]: 1.56 µM (active)
IC50 (HEK293 [8]): > 20 µM (inactive)
EC50 [9]: > 60 µM (not active)

Cc1ccc(Nc2c([N+](=O)[O-])nn(-c3ccc4c(c3)OCCO4)[n+]2[O-])cc1F
EC50 (HEK293 [2]): > 20 µM (inactive)
IC50 (HEK293 [3]): 0.842 µM (active)
IC50 (HEK293 [4]): > 20 µM (inactive)
EC50 [5]: > 20 µM (inactive)
IC50 (HEK293 [6]): > 20 µM (inactive)
IC50 (HEK293 [8]): > 20 µM (inactive)
AC50 (HEK293 [10]): 0.538 µM (active)

Cc1nc2nc(SCC(=O)NCc3ccco3)nn2c(C)c1Cc1ccccc1
AC50 [11]: 0.704 µM (active)

CC(=O)OCc1cc(=O)n(C)c2c3c4c(cc12)c(C)cc(=O)n4CO3
GI50 (P388/ADR): 0.531 µM (active)
GI50 (SN12K1): 0.843 µM (active)
GI50 (P388): 0.344 µM (active)

CCCCC1(C2c3ccccc3Oc3ccccc32)C(=O)N(c2ccccc2)N(c2ccccc2)C1=O
GI50 (P388/ADR): 17.6 µM (inactive)
GI50 (SN12K1): 34.8 µM (inactive)
GI50 (P388): 9.82 µM (inactive)

NCCCNCCSP(=O)(O)O [AMIFOSTINE]
GI50 (P388/ADR): 84.3 µM (inactive)
GI50 (SN12K1): > 667 µM (inactive)
GI50 (P388): 54.6 µM (inactive)

Nc1ccn(C2OC(CO)C(O)C2O)c(=O)n1 (stereo not drawn)
GI50 (P388/ADR): 0.05 µM (active)
GI50 (SN12K1): 0.07 µM (active)
GI50 (P388): 0.05 µM (active)

CSc1ccc(S(=O)(=O)N2CCC(C(=O)Nc3cccnc3)CC2)cc1
AC50 [11]: 0.807 µM (active)

Cc1cc(C)n(C2CCCCC2OC(=O)c2ccccc2F)n1 (stereo not drawn)
AC50 (HEK293 [10]): > 350 µM (inactive)

CN1c2ccc(-c3cccc(F)c3)cc2[C@H]2[C@H](CCN2C(=O)C2CCOCC2)[C@H]1CO
AC50 [11]: 0.108 µM (active)

Cc1ccc(-n2ncc(Br)c(Br)c2=O)cc1
EC50 [12]: 2.27 µM (inconclusive)
EC50 [13]: 5.57 µM (active)
EC50 [14]: 0.443 µM (active)
EC50 [7]: 2.23 µM (active)
EC50 [9]: 1.97 µM (active)
AC50 [15]: 20.9 µM (active)
EC50 (Protein RecA): 4.75 µM (active)
IC50 [16]: 3.25 µM (active)

O=[N+]([O-])CC(c1ccc(Br)cc1)c1c(O)n[nH]c1-c1ccccc1O (stereo not drawn)
CC50 [1]: 10.3 µM (active)
EC50 [17]: 9 µM (active)
EC50 [18]: 6.72 µM (active)
CC50 (Vero): 14.2 µM (active)

CCn1c2ccccc2c2cc(/C=C(/C#N)C(N)=S)ccc21
AC50 (HEK293 [10]): 1.21 µM (active)

C#CCSc1nnc(-c2sc(-c3ccccc3)nc2C)n1C
EC50 [19]: > 120 µM (not active)
EC50 [20]: 48.9 µM (active)
EC50 (H4): 16.9 µM (active)
AC50 [11]: 2.88 µM (active)
AC50 (Cytochrome P450 2C9): 17.8 µM (inconclusive)
